Article PMC10550967, “Structure of the ceramide-bound SPOTS complex” (Nature Communications, 2023)

Experiments:
[1] = biological target: T1, SPOTS complex (monomeric, with Sac1) (Saccharomyces cerevisiae, UniProt P25045+P40970+P53224, P53224:S51A/P53224:S52A/P53224:S53A); experiment: colorimetric CoA release assay; format: biochemical; conditions: 30 µM PLP, 0.008% GDN, pH 6.8, RT, 1 h, FLAG-purified complex (mixture of SPOT and SPOTS), catalytic site Lcb1/Lcb2
T1 construct: gene LCB1; co-overexpressed in S. cerevisiae (GAL1 promoter); 3xFLAG inserted between codons 9 and 10 of LCB1, kept; GDN-solubilised; monomeric 1:1:1:1:1; Site chains differ by ligand (see pair conditions); The purified sample also holds Sac1-free SPOT monomer and dimer; with Serine palmitoyltransferase-regulating protein TSC3; Phosphoinositide phosphatase SAC1
T1 sequence (P25045 whole entry, one chain of several): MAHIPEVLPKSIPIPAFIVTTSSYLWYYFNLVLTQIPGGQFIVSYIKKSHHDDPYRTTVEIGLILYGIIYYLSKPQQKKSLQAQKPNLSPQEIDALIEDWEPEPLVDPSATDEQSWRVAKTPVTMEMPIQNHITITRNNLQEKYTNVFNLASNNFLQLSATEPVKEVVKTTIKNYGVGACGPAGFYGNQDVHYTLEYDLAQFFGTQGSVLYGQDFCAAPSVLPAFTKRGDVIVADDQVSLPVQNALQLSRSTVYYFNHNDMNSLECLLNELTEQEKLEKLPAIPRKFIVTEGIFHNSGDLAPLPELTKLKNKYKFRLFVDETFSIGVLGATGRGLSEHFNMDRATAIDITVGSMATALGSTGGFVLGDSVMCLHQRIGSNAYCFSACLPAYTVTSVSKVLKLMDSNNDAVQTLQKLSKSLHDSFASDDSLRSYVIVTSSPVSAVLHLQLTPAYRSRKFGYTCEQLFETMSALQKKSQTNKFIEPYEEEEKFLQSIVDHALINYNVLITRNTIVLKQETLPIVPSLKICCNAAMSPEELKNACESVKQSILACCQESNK
T1 sequence (P53224 whole entry S51A/S52A/S53A, one chain of several): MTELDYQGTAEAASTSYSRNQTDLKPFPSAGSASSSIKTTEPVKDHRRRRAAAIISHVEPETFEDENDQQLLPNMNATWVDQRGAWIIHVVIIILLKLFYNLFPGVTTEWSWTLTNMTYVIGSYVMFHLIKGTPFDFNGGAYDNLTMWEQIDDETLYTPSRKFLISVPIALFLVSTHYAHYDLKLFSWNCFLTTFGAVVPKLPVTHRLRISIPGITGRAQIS
T1 sequence (Q3E790 whole entry partner, one chain of several): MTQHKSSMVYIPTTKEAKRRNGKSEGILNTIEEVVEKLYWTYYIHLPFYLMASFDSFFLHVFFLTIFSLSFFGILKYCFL
T1 sequence (P32368 whole entry partner, one chain of several): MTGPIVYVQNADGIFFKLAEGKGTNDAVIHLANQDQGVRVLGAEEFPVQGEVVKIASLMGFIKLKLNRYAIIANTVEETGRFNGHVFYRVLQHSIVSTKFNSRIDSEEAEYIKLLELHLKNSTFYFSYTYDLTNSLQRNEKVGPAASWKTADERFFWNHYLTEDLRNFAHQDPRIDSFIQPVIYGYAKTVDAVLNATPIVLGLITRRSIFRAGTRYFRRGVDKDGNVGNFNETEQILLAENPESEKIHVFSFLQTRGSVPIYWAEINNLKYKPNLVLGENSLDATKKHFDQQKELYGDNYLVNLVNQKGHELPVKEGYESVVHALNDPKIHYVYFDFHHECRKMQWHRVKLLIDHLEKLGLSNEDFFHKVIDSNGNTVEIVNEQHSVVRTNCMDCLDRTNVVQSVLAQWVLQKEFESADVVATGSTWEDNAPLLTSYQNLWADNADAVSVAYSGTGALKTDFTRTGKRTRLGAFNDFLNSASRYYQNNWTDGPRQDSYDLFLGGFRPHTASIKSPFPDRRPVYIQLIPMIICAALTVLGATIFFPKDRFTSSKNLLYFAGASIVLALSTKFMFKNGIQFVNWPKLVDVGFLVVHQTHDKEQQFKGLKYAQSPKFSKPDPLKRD

SPOT complex (monomer) = biological target: T2, SPOT complex (monomer) (Saccharomyces cerevisiae, UniProt P25045+P40970+P53224, P53224:S51A/P53224:S52A/P53224:S53A); experiment: cryo-EM structure, […] Å; format: binding; conditions: site: pocket of Lcb1 TM0a helix and Orm1 TM4, three molecules; co-purified endogenous lipid
T2 construct: gene LCB1; same preparation as P1, cryo-EM class without Sac1; monomeric; 3xFLAG inserted between codons 9 and 10 of LCB1; GDN-solubilised; Site chains differ by ligand (see pair conditions); with Serine palmitoyltransferase-regulating protein TSC3
T2 sequence (P25045 whole entry, one chain of several): as the sequence (P25045 whole entry, one chain of several) above
T2 sequence (P53224 whole entry S51A/S52A/S53A, one chain of several): as the sequence (P53224 whole entry S51A/S52A/S53A, one chain of several) above
T2 sequence (Q3E790 whole entry partner, one chain of several): as the sequence (Q3E790 whole entry partner, one chain of several) above

[2] = biological target: T1, SPOTS complex (monomeric, with Sac1); experiment: cryo-EM structure, […] Å; coupled enzymatic assay of bound sterol; format: binding; conditions: site: pocket of Lcb1 TM0a helix and Orm1 TM4, three molecules; co-purified endogenous lipid
[3] = biological target: the molecule itself; experiment: cryo-EM structure; single-particle cryo-EM of the FLAG-purified complex in GDN, 10 mg/ml; one dataset gave a C2 symmetric SPOT dimer, a SPOT monomer and a SPOTS monomer with Sac1

## N[C@@H](CO)C(=O)O [L-serine]
[1]; 100 µM palmitoyl-CoA
  colorimetric CoA release assay: release of CoA-SH from the SPT-catalyzed condensation of palmitoyl-CoA and L-serine

## CC(C)[C@@H](C)/C=C/[C@@H](C)[C@H]1CC[C@H]2C3=CC=C4C[C@@H](O)CC[C@]4(C)[C@H]3CC[C@]12C [ergosterol]
SPOT complex (monomer)
  cryo-EM structure, 3.4 Å: in which three structurally well-resolved ergosterol molecules are positioned
[2]
  cryo-EM structure, 3.3 Å; coupled enzymatic assay of bound sterol: Lcb1-TM0a directly interacts with three molecules of ergosterol

## CCCCCCCCCCCCCCCC(=O)SCCNC(=O)CCNC(=O)[C@H](O)C(C)(C)COP(=O)(O)OP(=O)(O)OC[C@H]1O[C@@H](n2cnc3c(N)ncnc32)[C@H](O)[C@@H]1OP(=O)(O)O [palmitoyl-CoA]
[1]; 15 mM L-serine
  colorimetric CoA release assay: release of CoA-SH from the SPT-catalyzed condensation of palmitoyl-CoA and L-serine

B1: Lcb2 (enzyme, S. cerevisiae)
chain: MSTPANYTRVPLCEPEELPDDIQKENEYGTLDSPGHLYQVKSRHGKPLPEPVVDTPPYYISLLTYLNYLILIILGHVHDFLGMTFQKNKHLDLLEHDGLAPWFSNFESFYVRRIKMRIDDCFSRPTTGVPGRFIRCIDRISHNINEYFTYSGAVYPCMNLSSYNYLGFAQSKGQCTDAALESVDKYSIQSGGPRAQIGTTDLHIKAEKLVARFIGKEDALVFSMGYGTNANLFNAFLDKKCLVISDELNHTSIRTGVRLSGAAVRTFKHGDMVGLEKLIREQIVLGQPKTNRPWKKILICAEGLFSMEGTLCNLPKLVELKKKYKCYLFIDEAHSIGAMGPTGRGVCEIFGVDPKDVDILMGTFTKSFGAAGGYIAADQWIIDRLRLDLTTVSYSESMPAPVLAQTISSLQTISGEICPGQGTERLQRIAFNSRYLRLALQRLGFIVYGVADSPVIPLLLYCPSKMPAFSRMMLQRRIAVVVVAYPATPLIESRVRFCMSASLTKEDIDYLLRHVSEVGDKLNLKSNSGKSSYDGKRQRWDIEEVIRRTPEDCKDDKYFVN
modifications: PLP forms an internal aldimine with K366
notes: Lcb2, catalytic subunit of serine palmitoyltransferase, S. cerevisiae; also called SPT subunit; source: S. cerevisiae, co-expressed with the other SPOTS subunits under the GAL1 promoter
[3]
  binding result: binds
